The target of the assay is T1, human B-Raf (Homo sapiens, UniProt P15056).
T1 construct: Flag; GST; made in house; host or cells: Sf9 insect cells (B-Raf); E. coli (MEK1-GST)
Briefly: B-Raf Kinase to MEK1 ELISA. Format: biochemical. Particulars: for pIC50: median, cpd concentrations from 10 μM to 30 nM in half log dilutions, read-out: Median IC50; for inhibition at 10 µM: read-out: % Inhib./10 uM. An excerpt: TITLE: B-Raf Kinase to MEK1 ELISA
PURPOSE: To discover B-Raf Kinase inhibitors that can inhibit growth of tumor cells which contain oncogenic forms of Receptor Tyrosine Kinases or K-Ras, or B-Raf kinase.
Reagents: Flag/GST-tagged recombinant human B-Raf produced in Sf9 insect cells, human non-active Mek-1-GST (recombinant protein produced in E. coli); and a phospho-MEK1 specific poly-clonal Ab from Cell Signaling Technology (cat. #9121).
B-Raf1 Kinase Assay Procedure:
B-Raf-1 is used to phosphorylate GST-MEK1. MEK1 phosphorylation is measured by a phospho-specific antibody (from Cell Signaling Technology, cat. #9121) that detects phosphorylation of two serine residues at positions 217 and 221 on MEK1.
B-Raf Assay Stock Solutions:
1. Assay Dilution Buffer (ADB): 20 mM MOPS, pH 7.2, 25 mM β-glycerol phosphate, 5 mM EGTA, 1 mM sodium orthovanadate, 1 mM dithiothreitol.
2. Magnesium/ATP Cocktail: 200 μM cold ATP and 40 mM magnesium chloride in ADB.
3. Active Kinase: Active B-Raf: used at ˜20 ng per assay point.
4. Non-active GST-MEK1: Use at 100 nM (50 nM final).
6. Anti-GST Ab (Pharmacia)
7. Anti-rabbit Ab/Europium conjugate (Wallac)
1. Add 25 μl of ADB containing B-Raf and Mek per assay (i.e. per well of a 96 well plate)
2. Add 25 μl of 0.2 mM ATP and 40 mM magnesium chloride in ADB.
3. Incubate for 60 minutes at RT in a shaking incubator.
4. Transfer this mixture to an anti-GST Ab coated 96 well plate (Nunc Immunosorb plates coated o/n with a-GST.
5. Incubate for 60 minutes at 30° C. in a shaking incubator
6. Wash 3× with TBST, add Anti-Phospho MEK1 (1:1000)
7. Incubate for 60 minutes at 30° C. in a shaking incubator
8. Wash 3× with TBST, add Anti-rabbit Ab/Europium conjugate (Wallac) (1:500)
9. Incubate for 60 minutes at 30° C. in a shaking incubator
10. Add 100 ul of Wallac Delfia Enhancement Solution and shake for 10 minutes.
11. Read plates in Wallac Victor model Plate Reader.
12. Collect data analyze in Excel for single point and IC50 determinations.
Typically Raf-1 assay is run at cpd concentrations from 10 μM to 30 nM in half log dilutions. (% inhibition is determined for each cpd concentration)
A general note: An ELISA detects its analyte on a solid surface through an enzyme-linked reagent.

SMILES strings stand for the structures. pIC50: −log10 of the molar value. Where two headings read alike, the source gives them in different places. Bounds are passed on as bounds.

T1 sequence (P15056 whole entry): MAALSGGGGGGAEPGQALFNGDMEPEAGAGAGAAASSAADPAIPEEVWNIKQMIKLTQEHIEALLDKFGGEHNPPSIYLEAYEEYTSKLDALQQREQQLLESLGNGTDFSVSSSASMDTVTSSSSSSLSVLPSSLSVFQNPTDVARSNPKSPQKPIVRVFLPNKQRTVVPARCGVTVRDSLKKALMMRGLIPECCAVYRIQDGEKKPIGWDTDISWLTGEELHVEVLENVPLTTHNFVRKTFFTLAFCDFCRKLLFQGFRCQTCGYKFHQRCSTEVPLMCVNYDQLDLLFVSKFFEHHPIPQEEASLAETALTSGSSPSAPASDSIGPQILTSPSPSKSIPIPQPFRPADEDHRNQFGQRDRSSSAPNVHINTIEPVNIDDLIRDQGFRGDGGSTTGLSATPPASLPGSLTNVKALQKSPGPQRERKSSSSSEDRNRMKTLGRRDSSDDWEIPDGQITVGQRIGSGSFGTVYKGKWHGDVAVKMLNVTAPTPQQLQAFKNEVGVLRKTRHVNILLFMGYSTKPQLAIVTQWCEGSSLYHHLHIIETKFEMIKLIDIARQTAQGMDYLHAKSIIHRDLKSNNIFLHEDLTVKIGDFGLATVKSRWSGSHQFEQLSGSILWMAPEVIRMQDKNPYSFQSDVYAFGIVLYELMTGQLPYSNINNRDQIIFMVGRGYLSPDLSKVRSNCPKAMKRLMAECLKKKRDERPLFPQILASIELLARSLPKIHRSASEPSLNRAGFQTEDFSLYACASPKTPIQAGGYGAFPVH

As usually defined, the pIC50 is −log10 of the IC50, conventionally taken in molar units. Turning to `CCOC(=O)c1cnn2c(-c3cccc(NC(=O)c4ccc(C)c(C(F)(F)F)c4)c3)ccnc12` [Example 26, ethyl 7-(3-{[4-methyl-3-(trifluoromethyl)benzoyl]amino}phenyl)pyrazolo[1,5-a]pyrimidine-3-carboxylate], the pIC50 was 6.30. The inhibition at 10 µM (single point assay, 10 uM) came to 76%.

Regarding `CCOC(=O)c1cnn2c(-c3cccc(NC(=O)c4cc(C(F)(F)F)ccc4Cl)c3)ccnc12` [Example 27, ethyl 7-(3-{[2-chloro-5-(trifluoromethyl)benzoyl]amino}phenyl)pyrazolo[1,5-a]pyrimidine-3-carboxylate], the negative logarithm of the IC50 (pIC50) is below 5.00 and the inhibition at 10 µM was determined as 12%.

Regarding `CCOC(=O)c1cnn2c(-c3cccc(NC(=O)c4cc(C(F)(F)F)cc(Cl)c4F)c3)ccnc12` [Example 28, ethyl 7-(3-{[3-chloro-2-fluoro-5-(trifluoromethyl)benzoyl]amino}phenyl)pyrazolo[1,5-a]pyrimidine-3-carboxylate], the negative-log IC50 (pIC50) is below 5.00 and the inhibition at 10 µM amounted to 19%.

Turning to `CCOC(=O)c1cnn2c(-c3cccc(NC(=O)c4cc(F)c(Cl)cc4F)c3)ccnc12` [Example 29, ethyl 7-{3-[(4-chloro-2,5-difluorobenzoyl)amino]phenyl}pyrazolo[1,5-a]pyrimidine-3-carboxylate], the pIC50 is below 5.00 and the inhibition at 10 µM was found to be 0%.

Consider `CCOC(=O)c1cnn2c(-c3cccc(NC(=O)c4ccc(OC)c(C(F)(F)F)c4)c3)ccnc12` [Example 30, ethyl 7-(3-{[4-methoxy-3-(trifluoromethyl)benzoyl]amino}phenyl)pyrazolo[1,5-a]pyrimidine-3-carboxylate], for which the pIC50 is 5.89 and the inhibition at 10 µM stood at 75%.

Turning to `CNC(=O)c1cnn2c(-c3cccc(NC(=O)c4cccc(C(F)(F)F)c4)c3)ccnc12` [Example 31, N-methyl-7-(3-{[3-(trifluoromethyl)benzoyl]amino}phenyl)-pyrazolo[1,5-a]pyrimidine-3-carboxamide], the pIC50 is below 5.00 and the inhibition at 10 µM worked out at 48%.

For `O=C(Nc1cccc(-c2ccnc3c(C(=O)O)cnn23)c1)c1cccc(C(F)(F)F)c1` [Example 32, 7-(3-{[3-(trifluoromethyl)benzoyl]amino}phenyl)pyrazolo[1,5-a]pyrimidine-3-carboxylic acid], the pIC50 is below 5.00 and the inhibition at 10 µM worked out at 29%.

Consider `CCOC(=O)c1cnn2c(-c3cccc(NC(=O)Nc4cccc(C(F)(F)F)c4)c3)ccnc12` [Example 33, ethyl 7-{3-[({[3-(trifluoromethyl)phenyl]amino}carbonyl)amino]phenyl}pyrazolo[1,5-a]pyrimidine-3-carboxylate], for which the negative-log IC50 (pIC50) was 6.17 and the inhibition at 10 µM amounted to 80%.

On to `CCOC(=O)c1cnn2c(-c3cccc(NC(=O)Nc4ccc(Cl)cc4)c3)ccnc12` [Example 34, ethyl 7-[3-({[(4-chlorophenyl)amino]carbonyl}amino)phenyl]pyrazolo[1,5-a]pyrimidine-3-carboxylate], for which the pIC50 is below 5.00 and the inhibition at 10 µM was found to be 37%.

As for `CCOC(=O)c1cnn2c(-c3cccc(NC(=O)Nc4ccc(C(F)(F)F)cc4)c3)ccnc12` [Example 35, ethyl 7-{3-[({[4-(trifluoromethyl)phenyl]amino}carbonyl)amino]phenyl}pyrazolo[1,5-a]pyrimidine-3-carboxylate], the negative-log IC50 (pIC50) was 5.51 and the inhibition at 10 µM was found to be 71%.

Consider `CCOC(=O)c1cnn2c(-c3cccc(NC(=O)Nc4ccc(Cl)cc4C)c3)ccnc12` [Example 36, ethyl 7-[3-({[(4-chloro-2-methylphenyl)amino]carbonyl}amino)phenyl]pyrazolo[1,5-a]pyrimidine-3-carboxylate], for which the negative logarithm of the IC50 (pIC50) is below 5.00 and the inhibition at 10 µM is 33%.

Turning to `CCOC(=O)c1cnn2c(-c3cccc(NC(=O)Nc4cc(C(F)(F)F)ccc4Cl)c3)ccnc12` [Example 37, ethyl 7-{3-[({[2-chloro-5-(trifluoromethyl)phenyl]amino}carbonyl)amino]phenyl}pyrazolo[1,5-a]pyrimidine-3-carboxylate], the pIC50 is 5.17 and the inhibition at 10 µM was 76%.

Regarding `CCOC(=O)c1cnn2c(-c3cccc(NC(=O)Nc4ccc(C#N)cc4)c3)ccnc12` [Example 38, ethyl 7-[3-({[(4-cyanophenyl)amino]carbonyl}amino)phenyl]pyrazolo[1,5-a]pyrimidine-3-carboxylate], the pIC50 is below 5.00 and the inhibition at 10 µM is 20%.

Turning to `CCOC(=O)c1cnn2c(-c3cccc(NC(=O)Nc4ccccc4C(F)(F)F)c3)ccnc12` [Example 39, ethyl 7-{3-[({[2-(trifluoromethyl)phenyl]amino}carbonyl)amino]phenyl}pyrazolo[1,5-a]pyrimidine-3-carboxylate], the negative logarithm of the IC50 (pIC50) is below 5.00. In addition, under “single point assay, 10 uM”, the inhibition at 10 µM is 14%.

On to `CCOC(=O)c1cnn2c(-c3cccc(NC(=O)Nc4ccc(Cl)c(Cl)c4)c3)ccnc12` [Example 40, ethyl 7-[3-({[(3,4-dichlorophenyl)amino]carbonyl}amino)phenyl]pyrazolo[1,5-a]pyrimidine-3-carboxylate], for which the negative logarithm of the IC50 (pIC50) is 6.47 and the inhibition at 10 µM came out at 81%.

As for `CCOC(=O)c1cnn2c(-c3cccc(NC(=O)Nc4ccc(Br)cc4)c3)ccnc12` [Example 41, ethyl 7-[3-({[(4-bromophenyl)amino]carbonyl}amino)phenyl]pyrazolo[1,5-a]pyrimidine-3-carboxylate], the negative logarithm of the IC50 (pIC50) is below 5.00 and the inhibition at 10 µM worked out at 37%.

As to `CCOC(=O)c1cnn2c(-c3cccc(NC(=O)Nc4ccc(C)c(C)c4)c3)ccnc12` [Example 42, ethyl 7-[3-({[(3,4-dimethylphenyl)amino]carbonyl}amino)phenyl]pyrazolo[1,5-a]pyrimidine-3-carboxylate], the pIC50 was 5.45 and the inhibition at 10 µM came to 70%.

Take `CCOC(=O)c1cnn2c(-c3cccc(NC(=O)Nc4ccc(Cl)cc4C(F)(F)F)c3)ccnc12` [Example 43, ethyl 7-{3-[({[4-chloro-2-(trifluoromethyl)phenyl]amino}carbonyl)amino]phenyl}pyrazolo[1,5-a]pyrimidine-3-carboxylate]: the pIC50 was below 5.00 and the inhibition at 10 µM is 9%.

For the compound `CCOC(=O)c1cnn2c(-c3cccc(NC(=O)Nc4ccc(F)c(C(F)(F)F)c4)c3)ccnc12` [Example 44, ethyl 7-{3-[({[4-fluoro-3-(trifluoromethyl)phenyl]amino}carbonyl)amino]phenyl}pyrazolo[1,5-a]pyrimidine-3-carboxylate], the negative-log IC50 (pIC50) is 6.57 and the inhibition at 10 µM was found to be 90%.

`COCCNC(=O)c1cnn2c(-c3cccc(NC(=O)c4cccc(C(F)(F)F)c4)c3)ccnc12` [Example 45, N-(2-methoxyethyl)-7-(3-{[3-(trifluoromethyl)benzoyl]amino}phenyl)pyrazolo[1,5-a]pyrimidine-3-carboxamide]: the inhibition at 10 µM was found to be 56%.

Take `CCCNC(=O)c1cnn2c(-c3cccc(NC(=O)c4cccc(C(F)(F)F)c4)c3)ccnc12` [Example 46, N-propyl-7-(3-{[3-(trifluoromethyl)benzoyl]amino}phenyl)pyrazolo[1,5-a]pyrimidine-3-carboxamide]: the inhibition at 10 µM was 54%.
